The term GI50 denotes the concentration giving 50% growth inhibition.

The values that follow come from ChEMBL document CHEMBL1201862, “PubChem BioAssay data set” (2004).

Among the test systems are COLO 205; DU-145; HL-60; HCT-15; UACC-257; K562; ACHN; EKVX; SNB-19; Malme-3M; SR; OVCAR-5; MDA-MB-435; MCF7; MDA-N; SW-620; A549; SN12C; HOP-62; MDA-MB-231.
Holding throughout (assay): DTP human tumour cell line panel, 48 h

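Grown in 96-well plates, cells were treated for 48 hours with each compound at five concentrations. Insufficient inhibition: endpoint recorded as highest concentration tested. GI50 is the concentration that inhibits growth by half.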 Calls of active or inactive are those of the source. Rule as the data show it: active = GI50 up to about 1.1 µM and inactive = higher.

As for `Cc1cn2cc(-c3cccs3)nc2s1`, the GI50 is > 95.5 µM (inactive) in the test on COLO 205; > 40.4 µM (inactive) in the test with DU-145; 55.8 µM (inactive) in the test with HL-60; over 71.9 µM in the test with HCT-15; > 85.9 µM (inactive) in the test with UACC-257; 99.3 µM (inactive) with K562. The GI50 in the test with ACHN was > 88.5 µM (inactive); in the test on EKVX, > 65.8 µM (inactive); with SNB-19 it was > 100 µM (inactive); with Malme-3M it was > 100 µM (inactive); with SR, > 67.6 µM (inactive); in the test on OVCAR-5, > 100 µM (inactive). For the same compound, the GI50 in the test with MDA-MB-435 was > 100 µM (inactive); in the test on MCF7, > 53.5 µM (inactive); in the test with MDA-N, > 72.6 µM (inactive); in the test with SW-620, > 100 µM (inactive); in the test with A549, > 72.1 µM (inactive); in the test with SN12C, > 100 µM (inactive). Further, the GI50 in the test on HOP-62 is > 100 µM (inactive).

For the compound `CCCc1cc(=O)oc2c3c(c4c(c12)OC(C)(C)CC4)O[C@H](C)[C@@H](C)[C@H]3O`, the GI50 is 15.7 µM (inactive) with COLO 205; 16.1 µM (inactive) in the test on DU-145; 13.4 µM in the test with HCT-15; 14.8 µM (inactive) in the test with UACC-257; 2.52 µM (inactive) with K562; 14.1 µM (inactive) with MDA-MB-231. Also, the GI50 was 12.6 µM (inactive) in the test on EKVX; 16.6 µM (inactive) in the test on SNB-19; 21.9 µM (inactive) with Malme-3M; 16.7 µM (inactive) in the test on OVCAR-5; 11.5 µM (inactive) in the test on MDA-MB-435; 16.3 µM (inactive) with MCF7. The GI50 was 5.56 µM (inactive) in the test on MDA-N; 17 µM (inactive) with SW-620; 20 µM (inactive) in the test on A549; 16.4 µM (inactive) with SN12C; 16.6 µM (inactive) in the test with HOP-62.

For `COc1ccc(C2SC(C)C(=O)N2c2nc(-c3nc(-c4ccc(Cl)cc4)cs3)cs2)cc1` (stereo unspecified), the GI50 was > 100 µM (inactive) in the test with COLO 205; 94.4 µM (inactive) in the test with HL-60; over 100 µM with HCT-15; > 100 µM (inactive) in the test on UACC-257; > 100 µM (inactive) in the test with K562; > 100 µM (inactive) in the test with ACHN. Also, the GI50 in the test on MDA-MB-231, in the test with EKVX, with SNB-19, in the test with Malme-3M, in the test on SR and in the test on OVCAR-5 was > 100 µM (inactive) in each case. For the same compound, the GI50 in the test with MDA-MB-435, in the test on MCF7, with MDA-N, with SW-620, in the test with A549 and in the test on SN12C was > 100 µM (inactive) each time. Besides, in the test with HOP-62, the GI50 was > 100 µM (inactive).

On to `C(=N\c1ccc(-c2nc3ccccc3[nH]2)cc1)/c1ccco1`, for which the GI50 in the test on COLO 205 was 43.9 µM (inactive); in the test with DU-145 it was > 100 µM (inactive); in the test on HL-60 it was 24.3 µM (inactive); with HCT-15, 61 µM; in the test with UACC-257, > 100 µM (inactive); in the test with K562, 37.6 µM (inactive). Also, the GI50 is > 100 µM (inactive) in the test on ACHN; > 100 µM (inactive) in the test with EKVX; > 100 µM (inactive) in the test on Malme-3M; 37.2 µM (inactive) with SR; > 100 µM (inactive) in the test on OVCAR-5; 48.4 µM (inactive) in the test with MDA-MB-435. Moreover, the GI50 was 21.1 µM (inactive) with MCF7; 48.1 µM (inactive) in the test with MDA-N; 89.1 µM (inactive) in the test with SW-620; > 100 µM (inactive) in the test on A549; > 100 µM (inactive) in the test with SN12C; > 100 µM (inactive) in the test on HOP-62.

Regarding `COC(=O)C(C)Sc1nc2cc(Cl)ccc2s1` (stereo unspecified), the GI50 in the test on COLO 205 was > 100 µM (inactive); in the test on DU-145, > 100 µM (inactive); in the test on HCT-15, over 100 µM; in the test with UACC-257, > 100 µM (inactive); in the test on K562 it was 78.9 µM (inactive); in the test on ACHN it was > 100 µM (inactive). Moreover, the GI50 in the test with MDA-MB-231, with EKVX, in the test on SNB-19, in the test with Malme-3M, in the test with OVCAR-5 and in the test with MDA-MB-435 was > 100 µM (inactive) each time. Also, the GI50 with MCF7, in the test with MDA-N, in the test on SW-620, in the test on A549, in the test with SN12C and in the test on HOP-62 was > 100 µM (inactive) each time.

For the compound `CC1(C)CC[C@]2(C(=O)O)[C@H](O)C[C@]3(C)C(=CC[C@@H]4[C@@]5(C)CC[C@H](OC6OC(C(=O)O)C(O)C(O)C6O)C(C)(C)[C@@H]5CC[C@]43C)[C@@H]2C1` (stereo partly specified), the GI50 is > 100 µM (inactive) with COLO 205; 96.4 µM (inactive) in the test on DU-145; 22.6 µM (inactive) in the test with HL-60; 58.2 µM with HCT-15; > 100 µM (inactive) with UACC-257; 95.9 µM (inactive) in the test on K562. For the same compound, the GI50 in the test on ACHN was 40.4 µM (inactive); in the test with EKVX, 78.3 µM (inactive); in the test on SNB-19, 52.7 µM (inactive); in the test on Malme-3M, > 100 µM (inactive); in the test on SR, 21.3 µM (inactive); in the test with OVCAR-5 it was > 100 µM (inactive). For the same compound, the GI50 is > 100 µM (inactive) with MDA-MB-435; > 100 µM (inactive) in the test with MCF7; > 100 µM (inactive) in the test with MDA-N; > 100 µM (inactive) in the test on SW-620; > 100 µM (inactive) in the test on A549; 27.1 µM (inactive) with SN12C. Moreover, in the test on HOP-62, the GI50 was > 100 µM (inactive).

As to `CC(C)c1cc(C(C)C)c(S(=O)(=O)N/N=C2\CC3CCC2(C)C3(C)C)c(C(C)C)c1` (stereo unspecified), the GI50 is 12.9 µM (inactive) with COLO 205; 18 µM (inactive) in the test on DU-145; 46 µM in the test with HCT-15; 4.84 µM (inactive) with UACC-257; 8.53 µM (inactive) in the test on K562; 15 µM (inactive) in the test on ACHN. Moreover, the GI50 in the test with MDA-MB-231 is 5.74 µM (inactive); with EKVX, 11 µM (inactive); with SNB-19 it was 27.5 µM (inactive); in the test with Malme-3M, 25.5 µM (inactive); in the test on OVCAR-5, 48 µM (inactive); in the test on MDA-MB-435, 34.8 µM (inactive). Further, the GI50 in the test on MCF7 was 10 µM (inactive); with MDA-N it was 15.1 µM (inactive); in the test on SW-620 it was 57.1 µM (inactive); in the test with A549 it was 23.6 µM (inactive); in the test with SN12C it was 12.4 µM (inactive); in the test on HOP-62, 74.8 µM (inactive).

Turning to `S=c1c2cn[nH]c2nc2scc(-c3ccc(Cl)cc3)n12`, the GI50 was 23.5 µM (inactive) in the test with COLO 205; 10.7 µM with HCT-15; 54.6 µM (inactive) with UACC-257; 10.9 µM (inactive) with K562; 12.9 µM (inactive) with ACHN; 17 µM (inactive) in the test with MDA-MB-231. Besides, the GI50 was 17.3 µM (inactive) in the test with EKVX; 23.6 µM (inactive) in the test on SNB-19; 22.2 µM (inactive) in the test with Malme-3M; 12.1 µM (inactive) with SR; 14.3 µM (inactive) with OVCAR-5; 3.78 µM (inactive) with MDA-MB-435. Besides, the GI50 in the test on MCF7 is 18.5 µM (inactive); in the test on MDA-N, 4.36 µM (inactive); in the test on SW-620, 9.04 µM (inactive); in the test with A549, 13 µM (inactive); in the test with SN12C, 16.6 µM (inactive); in the test with HOP-62, 16.9 µM (inactive).
